From patent US11919887B2, “Substituted tetrahydrofurans as modulators of sodium channels” (Vertex Pharmaceuticals Incorporated, priority 2019, dated 2024)

Molecular target: human Nav 1.8 (Homo sapiens, UniProt Q9Y5Y9)
Assay: E-VIPR assay detecting and measuring Nav inhibition (HEK cells expressing truncated human Nav 1.8)
Assay type: cell-based
Details: in the Presence of Human Serum in the E-VIPR Assay; read-out: IC50
From the text: Sodium ion channels are voltage-dependent proteins that can be activated by inducing membrane voltage changes by applying electric fields. The electrical stimulation instrument and methods of use, referred to as E-VIPR, are described in International Publication No. WO 2002/008748 A3 and C.-J. Huang et al. Characterization of voltage-gated sodium channel blockers by electrical stimulation and fluorescence detection of membrane potential, 24 Nature Biotech. 439-46 (2006), both of which are incorporated by reference in their entirety. The instrument comprises a microtiter plate handler, an optical system for exciting the coumarin dye while simultaneously recording the coumarin and oxonol emissions, a waveform generator, a current- or voltage-controlled amplifier, and parallel electrode pairs that are inserted into assay plate wells. Under integrated computer control, this instrument passes user-programmed electrical stimulus protocols to cells within the wells of the microtiter plate.
16-20 hours prior to running the assay on E-VIPR, HEK cells expressing a truncated form of human Nav 1.8 with full channel activity were seeded into microtiter 384-well plates, pre-coated with matrigel, at a density of 25,000 cells per well. 2.5-5% KIR2.1 Bacmam virus was added to the final cell suspension before seeding into cell plates. HEK cells were grown in Dulbecco's Modified Eagle's Medium (DMEM) supplemented with 10% FBS (Fetal Bovine Serum, qualified; Sigma #F4135), 1% NEAA (Non-Essential Amino Acids, Gibco #11140), 1% HEPES (Gibco #15630), 1% Pen-Strep (Penicillin-Streptomycin; Gibco #15140) and 5 μg/ml Blasticidin (Gibco #R210-01). Cells were expanded in vented cap cell culture flasks, with 90-95% humidity and 5% CO2.
Human Serum (HS, Millipore #S1P1-01KL, or Sigma SLBR5469V and SLBR5470V as a 50%/50% mixture, for 25% assay final concentration)
Bath1 Buffer: • Sodium Chloride 160 mM (9.35 g/L), Potassium Chloride, 4.5 mM (0.335 g/L), Glucose 10 mM (1.8 g/L), Magnesium Chloride (Anhydrous) 1 mM (0.095 g/L), Calcium Chloride 2 mM (0.222 g/L), HEPES 10 mM (2.38 g/L) in water.
Na/TMA Cl Bath1 Buffer: • Sodium Chloride 96 mM (5.61 g/L), Potassium Chloride 4.5 mM (0.335 g/L), Tetramethylammonium (TMA)-Cl 64 mM (7.01 g/L), Glucose 10 mM (1.8 g/L), Magnesium Chloride (Anhydrous) 1 mM (0.095 g/L), Calcium Chloride 2 mM (0.222 g/L) HEPES 10 mM (2.38 g/L) in water.
Hexyl Dye Solution (2× concentration): • Bath1 Buffer containing 0.5% β-cyclodextrin (made fresh prior to each use, Sigma #C4767), 8 μM CC2-DMPE and 2 μM DiSBAC6(3). The solution was made by adding 10% Pluronic F127 stock equal to combined volumes of CC2-DMPE and DiSBAC6(3). The order of preparation was first mix Pluronic and CC2-DMPE, then add DiSBAC6(3), then while vortexing add Bath1/β-Cyclodextrin.
Compound Loading Buffer (2×concentration): Na/TMA Cl Bath1 Buffer containing HS (omitted in experiments run in the absence of human serum (HS)) 50%, VABSC-1 1 mM, BSA 0.2 mg/ml (in Bath-1), KCl 9 mM, DMSO 0.75%.
Assay Protocol (7 Key Steps): • 1) To reach the final concentration in each well, 400 nL of each compound was pre-spotted (in neat DMSO) into polypropylene compound plates at 250×desired final concentration from an intermediate stock concentration of 0.075 mM, in an 11 point dose response, 3-fold dilution, resulting in a top dose of 300 nM final concentration in the cell plate. Vehicle control (neat DMSO), and positive control (an established Nav1.8 inhibitor, 25 μM final in assay in DMSO) were added manually to the outermost columns of each plate respectively. The compound plate was backfilled with 45 μL per well of Compound Loading Buffer resulting in a 250 fold dilution of compound following a 1:1 transfer of compound into the cell plate (see Step 6). Final DMSO concentration for all wells in the assay was 0.625% (0.75% DMSO was supplemented to the Compound Loading Buffer for a final DMSO concentration of 0.625%). […]

Chain of human Nav 1.8 (Q9Y5Y9 whole entry, looked up, the tested form may be a part): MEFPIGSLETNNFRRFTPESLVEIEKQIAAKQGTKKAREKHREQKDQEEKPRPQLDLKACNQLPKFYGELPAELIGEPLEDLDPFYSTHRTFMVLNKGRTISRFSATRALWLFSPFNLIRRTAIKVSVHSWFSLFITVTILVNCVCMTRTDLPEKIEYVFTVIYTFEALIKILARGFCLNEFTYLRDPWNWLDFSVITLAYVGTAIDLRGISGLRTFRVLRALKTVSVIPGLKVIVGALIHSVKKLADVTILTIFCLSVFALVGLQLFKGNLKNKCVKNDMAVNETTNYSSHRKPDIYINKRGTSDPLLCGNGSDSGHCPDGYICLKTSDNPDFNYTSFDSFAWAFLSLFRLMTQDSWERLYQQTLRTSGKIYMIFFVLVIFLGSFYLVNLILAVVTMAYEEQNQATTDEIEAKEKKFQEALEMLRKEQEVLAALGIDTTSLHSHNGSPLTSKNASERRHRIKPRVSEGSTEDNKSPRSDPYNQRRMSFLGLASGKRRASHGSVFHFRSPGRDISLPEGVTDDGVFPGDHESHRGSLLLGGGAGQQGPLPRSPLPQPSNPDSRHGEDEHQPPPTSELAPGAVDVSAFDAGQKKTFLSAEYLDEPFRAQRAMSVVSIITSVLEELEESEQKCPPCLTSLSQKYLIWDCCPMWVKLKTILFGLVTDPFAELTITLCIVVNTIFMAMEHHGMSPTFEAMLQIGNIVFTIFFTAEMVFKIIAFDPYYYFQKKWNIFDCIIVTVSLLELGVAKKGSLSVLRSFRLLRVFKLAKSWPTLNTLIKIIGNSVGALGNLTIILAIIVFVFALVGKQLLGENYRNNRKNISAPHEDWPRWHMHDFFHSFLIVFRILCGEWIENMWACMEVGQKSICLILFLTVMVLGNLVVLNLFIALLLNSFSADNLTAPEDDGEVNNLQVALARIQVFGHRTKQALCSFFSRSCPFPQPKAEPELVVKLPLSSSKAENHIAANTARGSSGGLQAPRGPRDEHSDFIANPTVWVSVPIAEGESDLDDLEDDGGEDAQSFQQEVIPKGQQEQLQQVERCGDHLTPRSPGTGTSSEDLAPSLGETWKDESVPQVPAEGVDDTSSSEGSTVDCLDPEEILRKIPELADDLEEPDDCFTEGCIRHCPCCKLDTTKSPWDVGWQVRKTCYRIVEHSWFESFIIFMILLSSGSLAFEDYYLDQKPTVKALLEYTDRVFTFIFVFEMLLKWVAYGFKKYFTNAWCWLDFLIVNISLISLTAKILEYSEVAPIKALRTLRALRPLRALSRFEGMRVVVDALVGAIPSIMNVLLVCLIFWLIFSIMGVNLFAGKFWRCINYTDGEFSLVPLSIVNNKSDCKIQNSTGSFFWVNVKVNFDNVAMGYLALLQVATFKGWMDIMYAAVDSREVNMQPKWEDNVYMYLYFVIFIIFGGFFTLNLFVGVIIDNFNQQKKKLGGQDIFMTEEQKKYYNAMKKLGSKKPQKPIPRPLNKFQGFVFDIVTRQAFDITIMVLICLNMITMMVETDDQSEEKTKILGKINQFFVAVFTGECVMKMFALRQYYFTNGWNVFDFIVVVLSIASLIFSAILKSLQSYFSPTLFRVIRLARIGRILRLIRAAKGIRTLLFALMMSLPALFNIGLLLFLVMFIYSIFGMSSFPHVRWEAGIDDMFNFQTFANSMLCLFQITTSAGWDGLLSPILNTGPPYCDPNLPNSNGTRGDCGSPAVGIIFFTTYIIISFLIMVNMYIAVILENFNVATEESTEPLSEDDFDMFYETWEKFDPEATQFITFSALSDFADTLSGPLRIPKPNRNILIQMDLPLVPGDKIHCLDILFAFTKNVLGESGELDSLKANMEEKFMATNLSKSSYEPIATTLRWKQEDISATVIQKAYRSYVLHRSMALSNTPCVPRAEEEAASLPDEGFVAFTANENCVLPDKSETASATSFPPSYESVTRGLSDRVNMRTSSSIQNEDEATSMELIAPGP

SMILES	IC50
COc1cc(F)ccc1[C@@H]1[C@@H](C)[C@@](C)(C(F)(F)F)O[C@H]1C(=O)Nc1ccnc(C(N)=O)c1 (single isomer, unassigned) [Compound 36]	> 1000 nM
COc1cc(F)ccc1[C@@H]1[C@@H](C(=O)Nc2ccnc(C(N)=O)c2)O[C@@](C)(C(F)(F)F)[C@H]1C (single isomer, unassigned) [Compound 37]	100 to 1000 nM
COc1cc(F)ccc1[C@@H]1[C@@H](C(=O)Nc2ccnc(C(N)=O)c2)O[C@](C)(C(F)(F)F)[C@H]1C (single isomer, unassigned) [Compound 38]	> 1000 nM
COc1cc(F)ccc1[C@@H]1[C@@H](C)[C@](C)(C(F)(F)F)O[C@H]1C(=O)Nc1ccnc(C(N)=O)c1 (single isomer, unassigned) [Compound 39]	100 to 1000 nM
COc1cc(F)ccc1[C@H]1[C@H](C(=O)Nc2ccnc(C(N)=O)c2)O[C@](C)(C(F)(F)F)[C@H]1C (single isomer, unassigned) [Compound 40]	> 1000 nM
COc1cc(F)ccc1[C@@H]1[C@@H](C(=O)Nc2ccnc(C(N)=O)c2)O[C@@](C)(C(F)(F)F)[C@@H]1C (single isomer, unassigned) [Compound 41]	10 to 100 nM
COc1c([C@H]2[C@H](C(=O)Nc3ccnc(C(N)=O)c3)O[C@@](C)(C(F)(F)F)[C@H]2C)ccc(F)c1C(F)F (single isomer, unassigned) [Compound 44]	< 10 nM
COc1c([C@@H]2[C@@H](C(=O)Nc3ccnc(C(N)=O)c3)O[C@](C)(C(F)(F)F)[C@@H]2C)ccc(F)c1C(F)F (single isomer, unassigned) [Compound 45]	10 to 100 nM
COc1c([C@H]2C[C@@](C)(C(F)(F)F)O[C@@H]2C(=O)Nc2ccc(F)c(C(N)=O)c2)ccc(F)c1F (single isomer, unassigned) [Compound 46]	> 1000 nM
COc1c([C@@H]2C[C@](C)(C(F)(F)F)O[C@H]2C(=O)Nc2ccc(F)c(C(N)=O)c2)ccc(F)c1F (single isomer, unassigned) [Compound 47]	10 to 100 nM
CNC(=O)c1cc(NC(=O)[C@H]2O[C@](C)(C(F)(F)F)C[C@@H]2c2ccc(F)c(Cl)c2OC)ccn1 (single isomer, unassigned) [Compound 58]	> 1000 nM
CNC(=O)c1cc(NC(=O)[C@@H]2O[C@](C)(C(F)(F)F)C[C@H]2c2ccc(F)c(Cl)c2OC)ccn1 (single isomer, unassigned) [Compound 59]	> 1000 nM
CNC(=O)c1cc(NC(=O)[C@@H]2O[C@@](C)(C(F)(F)F)C[C@H]2c2ccc(F)c(Cl)c2OC)ccn1 (single isomer, unassigned) [Compound 60]	10 to 100 nM
CNC(=O)c1cc(NC(=O)[C@H]2O[C@@](C)(C(F)(F)F)C[C@@H]2c2ccc(F)c(Cl)c2OC)ccn1 (single isomer, unassigned) [Compound 61]	100 to 1000 nM
COc1c([C@H]2C[C@@H](C(C)(C)C)O[C@@H]2C(=O)Nc2ccnc(C(N)=O)c2)ccc(F)c1F (single isomer, unassigned) [Compound 65]	> 1000 nM
COc1c([C@@H]2C[C@H](C(C)(C)C)O[C@H]2C(=O)Nc2ccnc(C(N)=O)c2)ccc(F)c1F (single isomer, unassigned) [Compound 66]	100 to 1000 nM
COc1cc(F)ccc1[C@H]1C[C@@](C)(C(F)(F)F)O[C@H]1C(=O)Nc1ccnc(C(N)=O)c1 (single isomer, unassigned) [Compound 69]	> 1000 nM
COc1c([C@H]2C[C@@](C)(C(F)(F)F)O[C@@H]2C(=O)Nc2ccnc(C(N)=O)c2)ccc(F)c1C (single isomer, unassigned) [Compound 71]	> 1000 nM
COc1c([C@@H]2C[C@](C)(C(F)(F)F)O[C@H]2C(=O)Nc2ccnc(C(N)=O)c2)ccc(F)c1C (single isomer, unassigned) [Compound 72]	10 to 100 nM

SMILES	IC50
Cc1c(F)ccc([C@H]2C[C@@](C)(C(F)(F)F)O[C@@H]2C(=O)Nc2ccnc(C(N)=O)c2)c1F (single isomer, unassigned) [Compound 75]	> 1000 nM
Cc1c(F)ccc([C@@H]2C[C@](C)(C(F)(F)F)O[C@H]2C(=O)Nc2ccnc(C(N)=O)c2)c1F (single isomer, unassigned) [Compound 76]	100 to 1000 nM
CCc1c(F)ccc([C@H]2C[C@@](C)(C(F)(F)F)O[C@@H]2C(=O)Nc2ccnc(C(N)=O)c2)c1OC (single isomer, unassigned) [Compound 77]	> 1000 nM
CCc1c(F)ccc([C@@H]2C[C@](C)(C(F)(F)F)O[C@H]2C(=O)Nc2ccnc(C(N)=O)c2)c1OC (single isomer, unassigned) [Compound 78]	10 to 100 nM
COc1c([C@@H]2C[C@@](C)(CC(F)(F)F)O[C@H]2C(=O)Nc2ccnc(C(N)=O)c2)ccc(F)c1F (single isomer, unassigned) [Compound 80]	> 1000 nM
COc1c([C@@H]2C[C@](C)(CC(F)(F)F)O[C@H]2C(=O)Nc2ccnc(C(N)=O)c2)ccc(F)c1F (single isomer, unassigned) [Compound 81]	100 to 1000 nM
COc1c([C@H]2C[C@@](C)(CC(F)(F)F)O[C@@H]2C(=O)Nc2ccnc(C(N)=O)c2)ccc(F)c1F (single isomer, unassigned) [Compound 82]	> 1000 nM
COc1c([C@H]2C[C@](C)(CC(F)(F)F)O[C@@H]2C(=O)Nc2ccnc(C(N)=O)c2)ccc(F)c1F (single isomer, unassigned) [Compound 83]	100 to 1000 nM
COc1c([C@@H]2C[C@@](C)(C(C)(F)F)O[C@H]2C(=O)Nc2ccnc(C(N)=O)c2)ccc(F)c1F (single isomer, unassigned) [Compound 84]	> 1000 nM
COc1c([C@H]2C[C@@](C)(C(C)(F)F)O[C@@H]2C(=O)Nc2ccnc(C(N)=O)c2)ccc(F)c1F (single isomer, unassigned) [Compound 85]	> 1000 nM
COc1c([C@@H]2C[C@](C)(C(C)(F)F)O[C@H]2C(=O)Nc2ccnc(C(N)=O)c2)ccc(F)c1F (single isomer, unassigned) [Compound 86]	> 1000 nM
COc1c([C@H]2C[C@](C)(C(C)(F)F)O[C@@H]2C(=O)Nc2ccnc(C(N)=O)c2)ccc(F)c1F (single isomer, unassigned) [Compound 87]	100 to 1000 nM
CC(C)Oc1c([C@@H]2[C@@H](C(=O)Nc3ccnc(C(N)=O)c3)O[C@](C)(C(F)(F)F)[C@@H]2C)ccc(F)c1F (single isomer, unassigned) [Compound 88]	> 1000 nM
CC(C)Oc1c([C@H]2[C@H](C(=O)Nc3ccnc(C(N)=O)c3)O[C@@](C)(C(F)(F)F)[C@H]2C)ccc(F)c1F (single isomer, unassigned) [Compound 89]	< 10 nM
C[C@@H]1[C@H](c2ccc(F)c(F)c2)[C@@H](C(=O)Nc2ccnc(C(N)=O)c2)O[C@]1(C)C(F)(F)F (single isomer, unassigned) [Compound 90]	> 1000 nM
C[C@H]1[C@@H](c2ccc(F)c(F)c2)[C@H](C(=O)Nc2ccnc(C(N)=O)c2)O[C@@]1(C)C(F)(F)F (single isomer, unassigned) [Compound 91]	100 to 1000 nM
CC[C@@H]1[C@H](c2ccc(F)c(F)c2OC)[C@@H](C(=O)Nc2ccnc(C(N)=O)c2)O[C@]1(C)C(F)(F)F (single isomer, unassigned) [Compound 92]	> 1000 nM
CC[C@H]1[C@@H](c2ccc(F)c(F)c2OC)[C@H](C(=O)Nc2ccnc(C(N)=O)c2)O[C@@]1(C)C(F)(F)F (single isomer, unassigned) [Compound 93]	< 10 nM
